The record followed here is patent publication US8404672B2, “Substituted heterocyclic compounds” (Bristol-Meyers Squibb Company, priority 2009, dated 2013).

For assay [1], the target named is T1, S1P3 (membranes from S1P3 transfected CHO cells) (Homo sapiens, UniProt Q99500).
T1 construct: expressed in transfected cells; host or cells: CHO cells
In words: Method B: Receptor [35S] GTPγS SPA Binding Assay, S1P3. The assay is classed as biochemical. The procedure:
(§1) Method B: Receptor [35S] GTPγS SPA Binding Assays
(§2) Membranes prepared from S1P1 or S1P3 transfected CHO cells ([…]) were incubated in 96-well white plates (CORNING® 3693) with test compounds diluted in DMSO, in 50 μl of reaction mixture containing 7.5 μl WGA-PVT beads (20 mg/ml), and 5 μM GDP, 20 mM HEPES pH 7.4, 100 mM NaCl, 1 mM EDTA, 5 mM MgCl2, 10 μg/ml saponin, 0.1% BSA, and 1 μM leupeptin. The assay was initiated with the addition of […] of 0.2 nM [^35S]-GTPγS (1250 Ci/mmol; NEN) in assay buffer. After 90 min incubation at room temperature, spin the plate at 1000 rpm for 5 min. The bound radionuclides were measured at TOPCOUNT®, expressed as % response relative to S1P (1 μM) activation. Data was analyzed using the four parameter logistic equation in Excel. The four parameters in the equation, Y=A+((B−A)/(1+((EC50/X)^D))), are described as following: A is the Y value (agonist activity) at the bottom plateau; B is the Y value at the top plateau; EC50 is the X value (agonist concentration) when the response is halfway between bottom and top; D is Hill coefficient. Curves were not generated for compounds having Ymax values were below 50%.
(§3) Compounds of the present invention and Comparative Compound A were tested in the Receptor [35S] GTPγS Binding Assays (Method A) and Receptor [35S] In some instances, the value is an average of multiple experiments where N is the number of experiments conducted that provided satisfactory dose response curves. When more than one batch of an example was tested, the value presented is from a batch which allowed a comparison of GTPγS S1P1 and GTPγS S1P3 in which the most number of experiments were performed. Preferably, the same batch was examined in Method A and Method B. Data was not averaged across different batches of an example compound.
Background: Binding of GTPγS marks nucleotide exchange on a G protein.

Assay [2] deals with T2, S1P1 (membranes from S1P1 transfected CHO cells) (Homo sapiens, UniProt P21453).
T2 construct: expressed in transfected cells; host or cells: CHO cells
In words: Method B: Receptor [35S] GTPγS SPA Binding Assay, S1P1. The assay is classed as biochemical. Particulars: for EC50: Method B SPA, S1P1 transfected CHO membranes; for GTPγS S1P3/S1P1 (Method B): ratio of GTPγS S1P3 EC50 to GTPγS S1P1 EC50, Method B. The protocol:
as §1, §2, §3

The next assay addresses T3, human S1P1 (Homo sapiens, UniProt P21453).
T3 construct: expressed in transfected cells; host or cells: CHO cells
Kind of assay: S1P1 Binding Assay (33P-S1P radioligand competition, CHO cell membranes). Particulars: membranes from CHO cells expressing human S1P1; 0.03 nM 33P-S1P; 60 min room temperature. The procedure:
Membranes were prepared from CHO cells expressing human S1P1. Cells were dissociated in buffer containing 20 mM HEPES, pH 7.5, 50 mM NaCl, 2 mM EDTA and Protease Inhibitor cocktail (Roche), and disrupted on ice using the Polytron homogenizer. The homogenate was centrifuged at 20,000 rpm (48,000 g) and the supernatant was discarded. The membrane pellets were resuspended in buffer containing 50 mM HEPES, pH 7.5, 100 mM NaCl, 1 mM MgCl2, 2 mM EDTA and stored in aliquots at −80° C. after protein concentration determination.
Membranes ([…]) and 0.03 nM final concentration of ^33P—S1P ligand (1 mCi/ml, American Radiolabeled Chemicals) were added to the compound plates. Binding was performed for 60 min at room temperature, terminated by collecting the membranes onto GF/B filter plates, and radioactivity was measured by TOPCOUNT®. The competition data of the test compounds over a range of concentrations was plotted as percentage inhibition of radioligand specific binding. The IC50 is defined as the concentration of competing ligand needed to reduce specific binding by 50%.
Compounds of the present invention and Comparative Compound A were tested in the S1P1 binding assay described hereinabove and the results rounded to two digits, shown in Table A were obtained. In some instances, the value is an average of multiple experiments where N is the number of experiments conducted that provided satisfactory dose response curves. When more than one batch of an example was tested, the value presented is from the batch which allowed a comparison of GTPγS S1P1 and GTPγS S1P3 in Method A (Data shown in Table B). Data was not averaged across different batches of an example compound.
In general terms: Displacement assays read how much labelled ligand stays bound in the presence of the test substance.

Assay [3] has as its target T4, S1P1 (membranes from S1P1/CHO cells) (Homo sapiens, UniProt P21453).
T4 construct: expressed in transfected cells; host or cells: S1P1/CHO cells
Kind of assay: Method A: Receptor [35S] GTPγS Binding Assay, S1P1. Particulars: for EC50: Method A, S1P1/CHO membranes; for GTPγS S1P3/S1P1 (Method A): ratio of GTPγS S1P3 EC50 to GTPγS S1P1 EC50, Method A. The assay is classed as biochemical. The protocol:
(§4) Method A: Receptor [35S] GTPγS Binding Assays
(§5) Compounds were loaded in a 384 Falcon v-bottom plate (0.5 μl/well in a 3-fold dilution). Membranes prepared from S1P1/CHO cells or EDG3-Gal5-bla HEK293T cells were added to the compound plate (40 μl/well, final protein 3 μg/well) with MULTIDROP®. [^35S]GTP (1250 Ci/mmol, Perkin Elmer) was diluted in assay buffer: 20 mM HEPES, pH 7.5, 10 mM MgCl2, 150 mM NaCl, 1 mM EGTA, 1 mM DTT, 10 μM GDP, 0.1% fatty acid free BSA, and 10 μg/ml Saponin to 0.4 nM. 40 μl of the [^35S] GTP solution was added to the compound plate with a final concentration of 0.2 nM. The reaction was kept at room temperature for 45 min. At the end of incubation, all the mixtures in the compound plate were transferred to a 384 well FB filter plates via GPCR robot system. The filter plate was washed with water 4 times by using the modified manifold Embla plate washer and dried at 60° C. for 45 min. 30 μA of MicroScint 20 scintillation fluid was added to each well for counting at Packard TOPCOUNT®. EC50 is defined as the agonist concentration that corresponds to 50% of the Ymax (maximal response) obtained for each individual compound tested.
as §3

In assay [4] the target is T5, S1P3 (membranes from EDG3-Gal5-bla HEK293T cells) (Homo sapiens, UniProt Q99500).
T5 construct: expressed in transfected cells; host or cells: EDG3-Gal5-bla HEK293T cells
In words: Method A: Receptor [35S] GTPγS Binding Assay, S1P3. The assay is classed as biochemical. The protocol: as §4, §5, §3

Counter-ions that a name gives are not always drawn.

The term EC50 denotes the midpoint of the concentration-response curve. What is called IC50 is the concentration that inhibits the measured activity by half. Higher therefore signals weaker potency.

T4 sequence (P21453 whole entry): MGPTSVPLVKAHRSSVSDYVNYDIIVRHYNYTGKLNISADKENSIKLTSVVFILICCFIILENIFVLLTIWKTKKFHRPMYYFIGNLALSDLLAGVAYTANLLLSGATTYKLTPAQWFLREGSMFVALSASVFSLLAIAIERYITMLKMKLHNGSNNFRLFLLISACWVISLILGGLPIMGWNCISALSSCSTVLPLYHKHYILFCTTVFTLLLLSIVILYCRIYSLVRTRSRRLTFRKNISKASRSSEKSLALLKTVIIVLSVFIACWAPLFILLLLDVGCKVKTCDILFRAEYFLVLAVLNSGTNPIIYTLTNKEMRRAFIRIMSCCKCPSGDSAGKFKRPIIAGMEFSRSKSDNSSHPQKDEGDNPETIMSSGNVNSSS
T2 sequence (P21453 whole entry): as above
T3 sequence (P21453 whole entry): as above
T5 sequence (Q99500 whole entry): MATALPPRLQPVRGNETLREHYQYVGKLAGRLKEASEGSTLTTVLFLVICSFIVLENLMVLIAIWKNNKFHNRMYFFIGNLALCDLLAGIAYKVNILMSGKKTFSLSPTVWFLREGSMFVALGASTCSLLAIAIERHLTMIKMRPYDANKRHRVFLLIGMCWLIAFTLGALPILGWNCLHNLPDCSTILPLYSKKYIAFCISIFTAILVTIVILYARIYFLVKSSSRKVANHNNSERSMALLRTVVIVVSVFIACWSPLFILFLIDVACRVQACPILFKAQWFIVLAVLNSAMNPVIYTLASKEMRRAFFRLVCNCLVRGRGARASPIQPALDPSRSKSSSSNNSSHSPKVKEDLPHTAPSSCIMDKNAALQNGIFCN
T1 sequence (Q99500 whole entry): as above

As for `CCCc1c(-c2ccccn2)noc1-c1nc(-c2ccc(CN3CC(C(=O)O)C3)cc2)no1` [Example 6, 1-(4-(5-(4-Propyl-3-(pyridin-2-yl)isoxazol-5-yl)-1,2,4-oxadiazol-3-yl)benzyl)-azetidine-3-carboxylic acid, 2,2,2-trifluoroacetic acid salt], the midpoint of the response in assay [1], the EC50, lay at 430 nM. Besides, in assay [2], a half-maximal effect (EC50) was put at 0.082 nM and the “GTPγS S1P3/S1P1 (Method B)” value was 5,200. Moreover, the IC50 at human S1P1 came to 0.019 nM.
Consider `CCc1c(-c2nc(-c3ccc(CN4CC(C(=O)O)C4)cc3)no2)noc1-c1ccccn1` [Example 5, 1-(4-(5-(4-Ethyl-5-(pyridin-2-yl)isoxazol-3-yl)-1,2,4-oxadiazol-3-yl)benzyl)-azetidine-3-carboxylic acid, 2,2,2-trifluoroacetic acid salt], for which the EC50 in assay [2] worked out at 0.61 nM; in assay [3], 3.7 nM; in assay [4] it was 1900 nM. Besides, the “GTPγS S1P3/S1P1 (Method A)” value in assay [3] amounted to 513. The compound also registered an IC50 on human S1P1 of 0.051 nM.
Regarding `O=C(O)C1CN(Cc2ccc(-c3noc(-c4noc(-c5ccccn5)c4C(F)(F)F)n3)cc2)C1` [Example 2, 1-(4-(5-(5-(Pyridin-2-yl)-4-(trifluoromethyl)isoxazol-3-yl)-1,2,4-oxadiazol-3-yl)benzyl)azetidine-3-carboxylic acid], the half-maximal effective concentration (EC50) is 4400 nM in assay [1], 0.34 nM in assay [2] and 4.5 nM in assay [3]. Besides, the “GTPγS S1P3/S1P1 (Method B)” value in assay [2] is given as 13,000. Moreover, the IC50 on human S1P1 is 0.39 nM.
With `COC(=O)c1c(-c2ccccn2)noc1-c1nc(-c2ccc(CN3CC(C(=O)O)C3)cc2)no1` [Example 7, 1-(4-(5-(4-(Methoxycarbonyl)-3-(pyridin-2-yl)isoxazol-5-yl)-1,2,4-oxadiazol-3-yl)benzyl)azetidine-3-carboxylic acid], in assay [3], the EC50 was found to be 3.3 nM and the “GTPγS S1P3/S1P1 (Method A)” value was 5,800. In addition, in assay [4], the EC50 turned out to be 19000 nM. Also, the IC50 at human S1P1 was found to be 0.53 nM.
For `O=C(O)C1CN(Cc2ccc(-c3noc(-c4cc(-c5ccccn5)no4)n3)cc2)C1` [Example 8], the EC50 in assay [2] was determined as 68 nM; in assay [3], 450 nM; in assay [4], 2300 nM. The “GTPγS S1P3/S1P1 (Method A)” value in assay [3] is reported as 5.1. This compound also showed an IC50 at human S1P1 of 6.5 nM.
For the compound `O=C(O)C1CN(Cc2ccc(-c3noc(-c4cc(-c5ccccc5)c(C(F)(F)F)s4)n3)cc2)C1` [Comp. A, 1-(4-(5-(4-Phenyl-5-(trifluoromethyl)thiophen-2-yl)-1,2,4-oxadiazol-3-yl)benzyl)azetidine-3-carboxylic acid, reference compound], the “GTPγS S1P3/S1P1 (Method B)” value in assay [2] was determined as 78. For the same compound, the “GTPγS S1P3/S1P1 (Method A)” value in assay [3] came to 1.2.
In the case of `CCCc1c(-c2nc(-c3ccc(CN4CC(C(=O)O)C4)cc3)no2)noc1-c1ccccn1` [Example 3, 1-(4-(5-(4-Propyl-5-(pyridin-2-yl)isoxazol-3-yl)-1,2,4-oxadiazol-3-yl)benzyl)azetidine-3-carboxylic acid, 2,2,2-trifluoroacetic acid salt], the EC50 in assay [1] turned out to be 280 nM; in assay [2] it was 0.65 nM; in assay [3] it was 0.82 nM; in assay [4], 2100 nM. For the same compound, the “GTPγS S1P3/S1P1 (Method B)” value in assay [2] was 430. For the same compound, the “GTPγS S1P3/S1P1 (Method A)” value in assay [3] is listed as 2,600. Also, the IC50 at human S1P1 was determined as 0.021 nM.
In the case of `CC(C)c1c(-c2nc(-c3ccc(CN4CC(C(=O)O)C4)cc3)no2)noc1-c1ccccn1` [Example 4, 1-(4-(5-(4-Isopropyl-5-(pyridin-2-yl)isoxazol-3-yl)-1,2,4-oxadiazol-3-yl)benzyl)azetidine-3-carboxylate, 2,2,2-trifluoroacetic acid salt], the EC50 in assay [2] turned out to be 1 nM; in assay [3], 39 nM; in assay [4], 7000 nM. For the same compound, in assay [3], the “GTPγS S1P3/S1P1 (Method A)” value was 179. Besides, the IC50 on human S1P1 was 0.18 nM.
